{
  "source": "patent US5672603A",
  "about": "“Apoptosis regulating composition” (Otsuka Pharmaceutical Co., Ltd., priority 1991, dated 1997)",
  "key": {"[1]": {"tested_on": "Reverse transcriptase", "assay": "Antiretrovirus activity test: reverse transcriptase activity of virus from culture supernatant", "format": "cell-based, HIV", "conditions": "for Reverse transcriptase activity (cpm): control 1316", "method": "Human transformed normal T cells (MT-4) [Nagumo, T. and Hoshino, H., Jpn. J. Cancer Res. 79, 9-11 (1988)] were used to prepare a suspension of 2×10^5 cells/ml in RPMI-1640 medium (Gibco) supplemented 10% FCS (Gibco).\nCompound 1 was dissolved in hydrochloric acid, diluted in the same medium as above, neutralized with 2N NaOH and adjusted to concentrations of 1 μg/ml, 10 μg/ml, 30 μg/ml and 100 μg/ml.\nThe cells prepared in (a) above and the test compound (final concentration: 1 μg/ml, 10 μg/ml, 30 μg/ml or 100 μg/ml) prepared in (b) above were placed in the wells of a 12-well culture plate (Costar). Then, 50 μl/well of HIV suspension was added to infect the cells in each well, followed by 3-day incubation at 37° C. in a 5% carbon dioxide incubator. As a control, the medium without addition of the test compound was used. After completion of incubation, the cell suspension in each well was taken and viable cells were counted.\nThe cell suspension in each well was then centrifuged (1500 rpm×5 min) and 750 μl of culture supernatant was obtained.\nThe culture supernatant, 750 μ, obtained above was placed in an Eppendorf tube (1.8 ml) and 4 M NaCl and PEG-6000 (Sigma) were added. The mixture was allowed to react at 0° C. for 2 hours to precipitate the virus and the virus was harvested by centrifugation (15000 rpm×20 min). To this virus pellet were added solution 1 [50% glycerol (Wako Pure Chemical), 25 mM Tris-HCl (pH 7.5), 50 mM KCl 0.025% Triton X-100 (Sigma) and 5 mM DTT (Sigma)] and solution II [0.9% Triton X-100 (Sigma) and 1.5M KCl] for lysis at 0° C. for 30 min. To the resultant 10-μl virus solution were added 5 mg/ml bovine serum albumin (BSA, Sigma), 1 M Tris-HCl, 100 mM DTT (Sigma), 1M KCl, 10 mM Poly A (Sigma), 0.15 mM TTP (Sigma), 200 mM MgCl2, 0.15 mM Oligo(dT) (NEN) and [^3 H]-TTP (NEN) and the mixture was allowed to react at 37° C. for 1 hour. The reaction was then stopped by placing the mixture in ice and the whole amount was spotted on a membrane filter (DE-81 Filter, Whatman) and dried. After drying, the filter was washed three times with 0.5 M Na2 HPO4 and rinsed in ethanol and dried. The radioactivity of [^3 H]-TTP taken into DNA on the membrane was counted with a liquid scintillation counter to determine reverse transcriptase activity (unit, cpm)."}, "[2]": {"tested_on": "Human promyelocytic leukemia cells (HL-60)", "assay": "Cancer cell growth inhibition, HL-60 (long-term culture, trypan blue viable count)", "format": "cell-based", "conditions": "control 100", "from_the_text": "The human promyelocytic leukemia cell line HL-60 is a human leukemia cell line established by Robert Gallo et al. and typical properties thereof are described in the literature [Gallo, R. C. et al., Blood, 54, 713 (1979)]. It is available from the American Type Culture Collection (ATCC) under the accession number ATCC No. CCL-240.\nThe concentration of HL-60 cells was adjusted to 1×10^5 cells/ml using RPMI-1640 medium (GIBCO) supplemented with 10% of FCS (fetal calf serum; GIBCO).\nTest compound 1 was dissolved in acetic acid, followed by dilution with the same medium as used above in (1) and neutralization with 2N NaOH to give final concentrations of 100 μg/ml, 10 μg/ml and 1.0 μg/ml.\na) The test compound solutions prepared as described above under (3) were added to the HL-60 cell suspension prepared as described above under (1) to final concentrations of 10 μg/ml and 1.0 μg/ml. Using 12-well culture plates (Costar), cultivation was conducted in a 5% carbon dioxide gas incubator maintained at 37° C. for 3 to 4 days. The test compound-free medium was used as a control. Thereafter, the cell suspension in each well was sampled and mixed with 0.2% trypan blue-containing phosphate buffer, and unstained viable cells were counted under a microscope. Based on the counting result, the viable cell concentration was readjusted to 1×10^5 cells/ml, and cultivation was continued under the same conditions."}, "[3]": {"tested_on": "human adult T cell leukemic cells (5S)", "assay": "ATL-infected cell growth inhibition test: ATLV-infected cells", "format": "cell-based", "conditions": "for Number of ATLV-infected cells: 4 days, control 6.5", "method": "Human adult T cell leukemia cells (5S) were used to prepare a suspension of 1×10^5 cells/ml in RPMI-1640 medium (Gibco) supplemented 10% fetal calf serum (FCS, Gibco) for use as ATL virus-infected cells.\nCompound 1 was dissolved in hydrochloric acid, diluted with the same medium as above, neutralized with 2N NaOH and adjusted to concentrations of 1 μg/ml, 10 μg/ml and 30 μg/ml.\nThe cells prepared in (a) and (b) above were respectively placed in wells of a 24-well culture plate (Nunc), followed by addition of the test compound prepared in (c) (final concentration: 1 μg/ml, 10 μg/ml or 30 μg/ml), and cultured at 37° C. in a 5% carbon dioxide incubator for 4 days. As a control, the medium without addition of the test compound was used. After completion of incubation, the cell suspension in each well was taken for determination of viable cells."}},
  "data": [
    {"smiles": "COc1ccc(C(=O)N2CCN(c3ccc4c(c3)CCC(=O)N4)CC2)cc1OC", "note": "[Compound 1, 6-[4-(3,4-Dimethoxybenzoyl)-1-piperazinyl]-3,4-dihydrocarbostyril]", "values": [
      {"measurement": "Reverse transcriptase activity (cpm)", "setting": "[1]; 1 μg/ml", "value": 1423, "unit": "cpm"},
      {"measurement": "Reverse transcriptase activity (cpm)", "setting": "[1]; 10 μg/ml", "value": 1494, "unit": "cpm"},
      {"measurement": "Inhibition of reverse transcriptase activity (in words)", "setting": "[1]; 30 μg/ml and 100 μg/ml", "value": "inhibits reverse transcriptase activity remarkably"},
      {"measurement": "Reverse transcriptase activity (cpm)", "setting": "[1]; 30 μg/ml", "value": 372, "unit": "cpm"},
      {"measurement": "Reverse transcriptase activity (cpm)", "setting": "[1]; 100 μg/ml", "value": 898, "unit": "cpm"},
      {"measurement": "activity at 1 µg/mL", "setting": "[2]; HL-60, 648 h, on day 27, 1.0 μg/ml", "value": "76 ± 3.8", "unit": "%"},
      {"measurement": "activity at 10 µg/mL", "setting": "[2]; HL-60, 648 h, on day 27, 10 μg/ml", "value": "54 ± 2.6", "unit": "%"},
      {"measurement": "activity at 1 µg/mL", "setting": "[2]; HL-60, 792 h, on day 33, 1.0 μg/ml", "value": 0, "unit": "%"},
      {"measurement": "activity at 10 µg/mL", "setting": "[2]; HL-60, 792 h, on day 33, 10 μg/ml", "value": 0, "unit": "%"},
      {"measurement": "Number of ATLV-infected cells", "setting": "[3]; 1 μg/ml", "value": "0.6 ×10^5"},
      {"measurement": "Number of ATLV-infected cells", "setting": "[3]; 10 μg/ml", "value": "0.2 ×10^5"},
      {"measurement": "Number of ATLV-infected cells", "setting": "[3]; 30 μg/ml", "value": "3.3 ×10^5"},
      {"measurement": "Growth inhibition of ATLV-infected cells (in words)", "setting": "[3]; at least 1 μg/ml", "value": "potent inhibitory effect on the growth of ATLV-infected cells"}
    ]}
  ]
}
